Measured values taken from patent publication US11136296B2, “Substituted N-arylethyl-2-arylquinoline-4-carboxamides and use thereof” (Bayer Aktiengesellschaft, priority 2017, dated 2021).

Biological target: FP receptor (Homo sapiens (Human), UniProt P43088)
Experiment: In vitro test of inhibition of human FP receptor activity (PGF2α-induced calcium flux in FP-expressing CHEM1 cells)
Type: cell-based
Conditions: PGF2α-induced (2 nM) calcium flux in FP-expressing CHEM1 cells; some as mean values from multiple determinations
Description: Table 1 below lists the IC50 values from this assay for individual working examples of the invention (some as mean values from multiple independent individual determinations): […]

Sequence of FP receptor (P43088 whole entry): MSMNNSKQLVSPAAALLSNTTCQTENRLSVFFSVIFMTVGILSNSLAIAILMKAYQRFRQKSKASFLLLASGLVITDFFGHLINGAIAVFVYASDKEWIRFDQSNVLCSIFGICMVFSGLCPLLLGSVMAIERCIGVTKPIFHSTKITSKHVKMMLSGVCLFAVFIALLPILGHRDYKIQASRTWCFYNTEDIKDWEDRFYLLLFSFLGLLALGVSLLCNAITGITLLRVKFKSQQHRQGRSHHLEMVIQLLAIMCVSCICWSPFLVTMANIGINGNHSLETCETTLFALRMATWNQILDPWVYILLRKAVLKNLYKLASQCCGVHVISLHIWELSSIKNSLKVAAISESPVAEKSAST

Row | IC50 [nM] | SMILES
1 | 18 | Cc1c(-c2ccccc2)nc2ccc(Br)cc2c1C(=O)NCC(C)(CC(=O)O)c1ccccc1Cl (racemic) [Example 114, (+/−)-4-{[(6-Bromo-3-methyl-2-phenylquinolin-4-yl)carbonyl]amino}-3-(2-chlorophenyl)-3-methylbutanoic Acid]
2 | 240 | Cc1c(-c2ccccc2)nc2ccc(Br)cc2c1C(=O)NCC(C)(CC(=O)O)c1ccccn1 (racemic) [Example 117, (+/−)-4-{[(6-Bromo-3-methyl-2-phenylquinolin-4-yl)carbonyl]amino}-3-methyl-3-(pyridin-2-yl)butanoic Acid]
3 | 30 | COc1ccccc1C(C)(CNC(=O)c1c(C)c(-c2ccccc2)nc2ccc(Br)cc12)CC(=O)O (racemic) [Example 120, (+/−)-4-{[(6-Bromo-3-methyl-2-phenylquinolin-4-yl)carbonyl]amino}-3-(2-methoxyphenyl)-3-methylbutanoic Acid]
4 | 11 | COc1ccc(F)cc1C(CNC(=O)c1c(C)c(-c2ccccc2)nc2ccc(Br)cc12)CC(=O)O (racemic) [Example 123, (+/−)-4-{[(6-Bromo-3-methyl-2-phenylquinolin-4-yl)carbonyl]amino}-3-(5-fluoro-2-methoxyphenyl)butanoic Acid]
5 | 39 | COc1cccc(F)c1C(CNC(=O)c1c(C)c(-c2ccccc2)nc2ccc(Br)cc12)CC(=O)O (racemic) [Example 126, (+/−)-4-{[(6-Bromo-3-methyl-2-phenylquinolin-4-yl)carbonyl]amino}-3-(2-fluoro-6-methoxyphenyl)butanoic Acid]
6 | 130 | CCOc1ccccc1C(CNC(=O)c1c(C)c(-c2ccccc2)nc2ccc(Br)cc12)CC(=O)O (racemic) [Example 129, (+/−)-4-{[(6-Bromo-3-methyl-2-phenylquinolin-4-yl)carbonyl]amino}-3-(2-ethoxyphenyl)butanoic Acid]
7 | 32 | COc1ccc(F)cc1C(C)(CNC(=O)c1c(C)c(-c2ccccc2)nc2ccc(Br)cc12)CC(=O)O (racemic) [Example 132, (+/−)-4-{[(6-Bromo-3-methyl-2-phenylquinolin-4-yl)carbonyl]amino}-3-(5-fluoro-2-methoxyphenyl)-3-methylbutanoic Acid]
8 | 13 | COc1c(F)cc(F)cc1C(C)(CNC(=O)c1c(C)c(-c2ccccc2)nc2ccc(Br)cc12)CC(=O)O (racemic) [Example 135, (+/−)-4-{[(6-Bromo-3-methyl-2-phenylquinolin-4-yl)carbonyl]amino}-3-(3,5-difluoro-2-methoxyphenyl)-3-methylbutanoic Acid]
9 | 42 | COc1cc(F)ccc1C(C)(CNC(=O)c1c(C)c(-c2ccccc2)nc2ccc(Br)cc12)CC(=O)O (racemic) [Example 138, (+/−)-4-{[(6-Bromo-3-methyl-2-phenylquinolin-4-yl)carbonyl]amino}-3-(4-fluoro-2-methoxyphenyl)-3-methylbutanoic Acid]
10 | 24 | COc1ccccc1C(CNC(=O)c1c(C)c(-c2ccccc2)nc2ccc(Br)cc12)C(F)(F)C(=O)O (racemic) [Example 141, (+/−)-4-{[(6-Bromo-3-methyl-2-phenylquinolin-4-yl)carbonyl]amino}-2,2-difluoro-3-(2-methoxyphenyl)butanoic Acid]
11 | 15 | COc1cccc(F)c1C(C)(CNC(=O)c1c(C)c(-c2ccccc2)nc2ccc(Br)cc12)CC(=O)O (racemic) [Example 142, (+/−)-4-{[(6-Bromo-3-methyl-2-phenylquinolin-4-yl)carbonyl]amino}-3-(2-fluoro-6-methoxyphenyl)-3-methylbutanoic Acid]
12 | 49 | Cc1c(-c2ccccc2)nc2ccc(Br)cc2c1C(=O)NC(C)C(CC(=O)O)c1ccccc1Cl (racemic) [Example 145, (+/−)-4-{[(6-Bromo-3-methyl-2-phenylquinolin-4-yl)carbonyl]amino}-3-(2-chlorophenyl)pentanoic Acid]
13 | 42 | Cc1c(-c2ccccc2)nc2ccc(Br)cc2c1C(=O)NC(C)C(CC(=O)O)c1ccccc1Cl (racemic) [Example 148, (+/−)-4-{[(6-Bromo-3-methyl-2-phenylquinolin-4-yl)carbonyl]amino}-3-(2-chlorophenyl)pentanoic Acid]
14 | 15 | Cc1c(-c2ccccc2)nc2ccc(Br)cc2c1C(=O)NCC(C)(CCC(=O)O)c1ccccc1Cl (racemic) [Example 154, (+/−)-5-{[(6-Bromo-3-methyl-2-phenylquinolin-4-yl)carbonyl]amino}-4-(2-chlorophenyl)-4-methylpentanoic Acid]
15 | 3.7 | Cc1c(-c2ccccc2)nc2ccc(Br)cc2c1C(=O)NCC(CCC(=O)O)c1c(F)cccc1Cl (racemic) [Example 157, (+/−)-5-{[(6-Bromo-3-methyl-2-phenylquinolin-4-yl)carbonyl]amino}-4-(2-chloro-6-fluorophenyl)pentanoic Acid]
16 | 13 | Cc1ccccc1C(CCC(=O)O)CNC(=O)c1c(C)c(-c2ccccc2)nc2ccc(Br)cc12 (racemic) [Example 160, (+/−)-5-{[(6-Bromo-3-methyl-2-phenylquinolin-4-yl)carbonyl]amino}-4-(2-methylphenyl)pentanoic Acid]

Row | IC50 [nM] | SMILES
17 | 8.7 | Cc1c(-c2ccccc2)nc2ccc(Br)cc2c1C(=O)NCC(CCC(=O)O)c1cc(F)ccc1Cl (racemic) [Example 163, (+/−)-5-{[(6-Bromo-3-methyl-2-phenylquinolin-4-yl)carbonyl]amino}-4-(2-chloro-5-fluorophenyl)pentanoic Acid]
18 | 6.1 | COc1ccccc1C(CCC(=O)O)CNC(=O)c1c(C)c(-c2ccccc2)nc2ccc(Br)cc12 (racemic) [Example 166, (+/−)-5-{[(6-Bromo-3-methyl-2-phenylquinolin-4-yl)carbonyl]amino}-4-(2-methoxyphenyl)pentanoic Acid]
19 | 26 | Cc1c(-c2ccccc2)nc2ccc(Br)cc2c1C(=O)NCC(C)(CCC(=O)O)c1cc(F)ccc1Cl (racemic) [Example 169, (+/−)-5-{[(6-Bromo-3-methyl-2-phenylquinolin-4-yl)carbonyl]amino}-4-(2-chloro-5-fluorophenyl)-4-methylpentanoic Acid]
20 | 15 | Cc1c(-c2ccccc2)nc2ccc(Br)cc2c1C(=O)NCC(CCC(=O)O)c1ccccc1F (racemic) [Example 175, (+/−)-5-{[(6-Bromo-3-methyl-2-phenylquinolin-4-yl)carbonyl]amino}-4-(2-fluorophenyl)pentanoic Acid]
21 | 6.5 | Cc1c(-c2ccccc2)nc2ccc(Br)cc2c1C(=O)NCC(CCC(=O)O)c1ccccc1OC(F)F (racemic) [Example 178, (+/−)-5-{[(6-Bromo-3-methyl-2-phenylquinolin-4-yl)carbonyl]amino}-4-[2-(difluoromethoxy)phenyl]pentanoic Acid]
22 | 9.2 | Cc1c(-c2ccccc2)nc2ccc(Br)cc2c1C(=O)NCC(CCC(=O)O)c1c(F)cccc1F (racemic) [Example 181, (+/−)-5-{[(6-Bromo-3-methyl-2-phenylquinolin-4-yl)carbonyl]amino}-4-(2,6-difluorophenyl)pentanoic Acid]
23 | 7.7 | Cc1c(-c2ccccc2)nc2ccc(Br)cc2c1C(=O)NCC(CCC(=O)O)c1cccc(F)c1Cl (racemic) [Example 184, (+/−)-5-{[(6-Bromo-3-methyl-2-phenylquinolin-4-yl)carbonyl]amino}-4-(2-chloro-3-fluorophenyl)pentanoic Acid]
24 | 36 | Cc1c(-c2ccccc2)nc2ccc(Br)cc2c1C(=O)NCC(c1ccccc1Cl)N(C)CC(=O)O (racemic) [Example 187, (+/−)-N-[2-{[(6-Bromo-3-methyl-2-phenylquinolin-4-yl)carbonyl]amino}-1-(2-chlorophenyl)ethyl]-N-methylglycine]
25 | 67 | Cc1c(-c2ccccc2)nc2ccc(Br)cc2c1C(=O)NCC(NCC(=O)O)c1ccccc1Cl (racemic) [Example 190, (+/−)-N-[2-{[(6-Bromo-3-methyl-2-phenylquinolin-4-yl)carbonyl]amino}-1-(2-chlorophenyl)ethyl]glycine]
26 | 100 | Cc1c(-c2ccccc2)nc2ccc(Br)cc2c1C(=O)NCC(OCC(=O)O)c1ccccc1Cl (racemic) [Example 191, (+/−)-[2-{[(6-Bromo-3-methyl-2-phenylquinolin-4-yl)carbonyl]amino}-1-(2-chlorophenyl)ethoxy]acetic Acid]
27 | 7.9 | Cc1c(-c2ccccc2)nc2ccc(Br)cc2c1C(=O)NCC(SCC(=O)O)c1ccccc1Cl (racemic) [Example 194, (+/−)-{[2-{[(6-Bromo-3-methyl-2-phenylquinolin-4-yl)carbonyl]amino}-1-(2-chlorophenyl)ethyl]sulfanyl}acetic Acid]
28 | 21 | Cc1c(-c2ccccc2)nc2ccc(Br)cc2c1C(=O)NCC(c1ccccc1Cl)S(=O)(=O)CC(=O)O (racemic) [Example 197, (+/−)-{[2-{[(6-Bromo-3-methyl-2-phenylquinolin-4-yl)carbonyl]amino}-1-(2-chlorophenyl)ethyl]sulfonyl}acetic Acid]
29 | 3.6 | Cc1c(-c2ccccc2)nc2ccc(Br)cc2c1C(=O)NCC(CCC(=O)O)c1c(Cl)ccc(F)c1F (racemic) [Example 200, (+/−)-5-{[(6-Bromo-3-methyl-2-phenylquinolin-4-yl)carbonyl]amino}-4-(6-chloro-2,3-difluorophenyl)pentanoic Acid]
30 | 7.6 | Cc1c(-c2ccccc2)nc2ccc(Br)cc2c1C(=O)NCC(CCC(=O)O)c1ccccc1C(F)(F)F (racemic) [Example 203, (+/−)-5-{[(6-Bromo-3-methyl-2-phenylquinolin-4-yl)carbonyl]amino}-4-[2-(trifluoromethyl)phenyl]pentanoic Acid]
31 | 13 | Cc1ccc(F)cc1C(CCC(=O)O)CNC(=O)c1c(C)c(-c2ccccc2)nc2ccc(Br)cc12 (racemic) [Example 206, (+/−)-5-{[(6-Bromo-3-methyl-2-phenylquinolin-4-yl)carbonyl]amino}-4-(5-fluoro-2-methylphenyl)pentanoic Acid]

Row | SMILES | IC50 [nM]
32 | Cc1c(-c2ccccc2)nc2ccc(Br)cc2c1C(=O)NCC(CCC(=O)O)c1ccccc1Cl (racemic) [Example 151, (+/−)-5-{[(6-Bromo-3-methyl-2-phenylquinolin-4-yl)carbonyl]amino}-4-(2-chlorophenyl)pentanoic Acid] | 7.8
